The record followed here is US12152018B2, “Compounds and compositions for treating conditions associated with STING activity” (IFM Due, Inc., priority 2021, dated 2024).

The test deals with hSTING (Homo sapiens, UniProt Q86WV6). The test can be described thus: STING reporter assay in THP1-Dual KO-IFNAR2 cells (2′3′cGAMP stimulation, luciferase reporter). Format: cell-based. The note with it: 15 μM 2′3′cGAMP, 24 h, luciferase reporter activity. The protocol: STING pathway activation by the compounds described herein was measured using THP1-Dual™ cells (KO-IFNAR2).
THP1-Dual™ KO-IFNAR2 Cells (obtained from invivogen) were maintained in RPMI, 10% FCS, 5 ml P/S, 2 mM L-glut, 10 mM Hepes, and 1 mM sodium pyruvate. Compounds were spotted in empty 384 well tissue culture plates (Greiner 781182) by Echo for a final concentration of 0.0017-100 μM. Cells were plated into the TC plates at 40 μL per well, 2×10E6 cells/mL. For activation with STING ligand, 2′3′cGAMP (MW 718.38, obtained from Invivogen), was prepared in Optimem media.
The following solutions were prepared for each 1×384 plate: • Solution A: 2 mL Optimem with one of the following stimuli: • 60 μL of 10 mM 2′3′cGAMP→150 μM stock • Solution B: 2 mL Optimem with 60 μL Lipofectamine 2000→Incubate 5 min at RT
2 mL of solution A and 2 ml Solution B was mixed and incubated for 20 min at room temperature (RT). 20 μL of transfection solution (A+B) was added on top of the plated cells, with a final 2′3′cGAMP concentration of 15 μM. The plates were then centrifuged immediately at 340 g for 1 minute, after which they were incubated at 37° C., 5% CO2, >98% humidity for 24 h. Luciferase reporter activity was then measured. EC50 values were calculated by using standard methods known in the art.
Luciferase reporter assay: 10 μL of supernatant from the assay was transferred to white 384-plate with flat bottom and squared wells. One pouch of QUANTI-Luc™ Plus was dissolved in 25 mL of water. 100 μL of QLC Stabilizer per 25 mL of QUANTI-Luc™ Plus solution was added. 50 μL of QUANTI-Luc™ Plus/QLC solution per well was then added. Luminescence was measured on a Platereader (e.g., Spectramax I3X (Molecular Devices GF3637001)).
Luciferase reporter activity was then measured. EC50 values were calculated by using standard methods known in the art.
In general terms: In a reporter assay the amount or activity of a reporter protein is the signal.

By EC50 is commonly meant the midpoint of the concentration-response curve. Read a low EC50 as a more potent agent.

Sequence of hSTING (Q86WV6 whole entry R71H/G230A/H232R/R293Q, form open): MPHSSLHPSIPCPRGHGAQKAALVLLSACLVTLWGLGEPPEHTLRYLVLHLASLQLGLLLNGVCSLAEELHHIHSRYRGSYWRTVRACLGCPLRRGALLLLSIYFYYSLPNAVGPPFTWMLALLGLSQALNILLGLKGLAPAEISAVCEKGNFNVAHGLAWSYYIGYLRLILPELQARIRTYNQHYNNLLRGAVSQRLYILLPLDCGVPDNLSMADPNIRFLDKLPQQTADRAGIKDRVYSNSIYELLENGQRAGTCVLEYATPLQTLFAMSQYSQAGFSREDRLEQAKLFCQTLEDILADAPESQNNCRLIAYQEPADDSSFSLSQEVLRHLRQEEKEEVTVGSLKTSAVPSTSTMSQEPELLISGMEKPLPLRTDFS

In turn, `CC(=O)N1CCC(NC(=O)Nc2c[nH]c3ccc(-c4cnn(-c5ccc(C(F)(F)F)cc5)c4)cc23)C1` (centres unmarked) [Compound 101, 1-(1-acetylpyrrolidin-3-yl)-3-(5-(1-(4-(trifluoromethyl)phenyl)-1H-pyrazol-4-yl)-1H-indol-3-yl)urea] registered an EC50 of 1000 to 5000 nM. With `CC(C)(O)CNC(=O)Nc1c[nH]c2ccc(-c3cnn(-c4ccc(C(F)(F)F)cc4)c3)cc12` [Compound 102, 1-(2-hydroxy-2-methylpropyl)-3-(5-(1-(4-(trifluoromethyl)phenyl)-1H-pyrazol-4-yl)-1H-indol-3-yl)urea], the EC50 was 200 to 1000 nM. Turning to `O=C(NCC1CC1)Nc1c[nH]c2ccc(-c3cnn(Cc4ccc(C(F)(F)F)cc4)c3)cc12` [Compound 103, 1-(cyclopropylmethyl)-3-(5-(1-(4-(trifluoromethyl)benzyl)-1H-pyrazol-4-yl)-1H-indol-3-yl)urea], the EC50 was 200 to 1000 nM. Consider `O=C(NCC(F)(F)F)Nc1c[nH]c2ccc(-c3cnn(-c4ccc(C(F)(F)F)cc4)c3)cc12` [Compound 104, 1-(2,2,2-trifluoroethyl)-3-(5-(1-(4-(trifluoromethyl)phenyl)-1H-pyrazol-4-yl)-1H-indol-3-yl)urea], for which the concentration giving a half-maximal response (EC50) is 200 to 1000 nM. For the compound `CNC(=O)Nc1c[nH]c2ccc(-c3cnn(Cc4ccc(C(F)(F)F)cc4)c3)cc12` [Compound 105, 1-methyl-3-(5-(1-(4-(trifluoromethyl)benzyl)-1H-pyrazol-4-yl)-1H-indol-3-yl)urea], the EC50 lay in the range of 200 to 1000 nM. As for `O=C(NCC1CC1)Nc1c[nH]c2ccc(-c3cnn(-c4ccc(C(F)(F)F)cn4)c3)cc12` [Compound 106, 1-(cyclopropylmethyl)-3-(5-(1-(5-(trifluoromethyl)pyridin-2-yl)-1H-pyrazol-4-yl)-1H-indol-3-yl)urea], the figure is 200 to 1000 nM; as for `O=C(NCC(F)(F)F)Nc1c[nH]c2ccc(-c3cnn(-c4ccc(C(F)(F)F)cn4)c3)cc12` [Compound 107, 1-(2,2,2-trifluoroethyl)-3-(5-(1-(5-(trifluoromethyl)pyridin-2-yl)-1H-pyrazol-4-yl)-1H-indol-3-yl)urea], 200 to 1000 nM. Take `CCc1ccc(-n2cc(-c3ccc4[nH]cc(NC(=O)N5CCN(C(C)=O)CC5)c4c3)cn2)cc1` [Compound 108, 4-acetyl-N-{5-[1-(4-ethylphenyl)-1H-pyrazol-4-yl]-1H-indol-3-yl}piperazine-1-carboxamide]: the EC50 was 1000 to 5000 nM.

`O=C(NCC1CC1)Nc1c[nH]c2ccc(-c3cnn(-c4ccc(C(F)(F)F)cc4)c3)cc12` [Compound 109, 1-(cyclopropylmethyl)-3-(5-(1-(4-(trifluoromethyl)phenyl)-1H-pyrazol-4-yl)-1H-indol-3-yl)urea] came in with an EC50 of 200 to 1000 nM. `CCc1ccc(-n2cc(-c3ccc4[nH]cc(NC(=O)NCCOC)c4c3)cn2)cc1` [Compound 110, 1-(5-(1-(4-ethylphenyl)-1H-pyrazol-4-yl)-1H-indol-3-yl)-3-(2-methoxyethyl) urea] returned an EC50 of 200 to 1000 nM.

In turn, `CCc1ccc(-n2cc(-c3ccc4[nH]cc(NC(=O)NCC5CCCC5)c4c3)cn2)cc1` [Compound 111, 1-(cyclopentylmethyl)-3-{5-[1-(4-ethylphenyl)-1H-pyrazol-4-yl]-1H-indol-3-yl}urea] gave an EC50 of 200 to 1000 nM. As for `CCc1ccc(-n2cc(-c3ccc4[nH]cc(NC(=O)N5CCCC5)c4c3)cn2)cc1` [Compound 112, N-(5-(1-(4-ethylphenyl)-1H-pyrazol-4-yl)-1H-indol-3-yl)pyrrolidine-1-carboxamide], the figure is 200 to 1000 nM; as for `CNC(=O)Nc1c[nH]c2ccc(-c3cnn(-c4cccc(Cl)c4)c3)cc12` [Compound 113, 1-{5-[1-(3-chlorophenyl)-1H-pyrazol-4-yl]-1H-indol-3-yl}-3-methylurea], 200 to 1000 nM; as for `CCc1ccc(-n2cc(-c3ccc4[nH]cc(NC(=O)NCCC(F)(F)F)c4c3)cn2)cc1` [Compound 114, 1-(5-(1-(4-ethylphenyl)-1H-pyrazol-4-yl)-1H-indol-3-yl)-3-(3,3,3-trifluoropropyl)urea], 40 to 200 nM. Turning to `CNC(=O)Nc1c[nH]c2ccc(-c3cnn(-c4ccccc4Cl)c3)cc12` [Compound 115, 1-{5-[1-(2-chlorophenyl)-1H-pyrazol-4-yl]-1H-indol-3-yl}-3-methylurea], the EC50 was 1000 to 5000 nM. As for `CNC(=O)Nc1c[nH]c2ccc(-c3cnn(-c4cccc(C#N)c4)c3)cc12` [Compound 116, 1-{5-[1-(3-cyanophenyl)-1H-pyrazol-4-yl]-1H-indol-3-yl}-3-methylurea], the figure is 5000 to 100000 nM; as for `CNC(=O)Nc1c[nH]c2ccc(-c3ccnc(N4CCCCC4)c3)cc12` [Compound 117, 3-methyl-1-{5-[2-(piperidin-1-yl)pyridin-4-yl]-1H-indol-3-yl}urea], 5000 to 100000 nM; as for `CNC(=O)Nc1c[nH]c2ccc(-c3cnn(-c4ccc(C(F)(F)F)cc4)c3)cc12` [Compound 118, 1-methyl-3-(5-(1-(4-(trifluoromethyl)phenyl)-1H-pyrazol-4-yl)-1H-indol-3-yl)urea], 200 to 1000 nM. As for `CCc1ccc(-n2cc(-c3ccc4[nH]cc(NC(=O)N(C)C)c4c3)cn2)cc1` [Compound 119, 3-(5-(1-(4-ethylphenyl)-1H-pyrazol-4-yl)-1H-indol-3-yl)-1,1-dimethylurea], the figure is 200 to 1000 nM. For `CCc1ccc(-n2cc(-c3ccc4[nH]cc(NC(=O)NC5CCCC5)c4c3)cn2)cc1` [Compound 120, 1-cyclopentyl-3-(5-(1-(4-ethylphenyl)-1H-pyrazol-4-yl)-1H-indol-3-yl)urea], the EC50 was 200 to 1000 nM. As for `CNC(=O)Nc1c[nH]c2ccc(-c3ccc(C4(C#N)CC4)cc3)cc12` [Compound 121, 1-{5-[4-(1-cyanocyclopropyl)phenyl]-1H-indol-3-yl}-3-methylurea], the figure is 5000 to 100000 nM; as for `CNC(=O)Nc1c[nH]c2ccc(-c3cccc(C4CC4)c3)cc12` [Compound 122, 1-[5-(3-cyclopropylphenyl)-1H-indol-3-yl]-3-methylurea], 1000 to 5000 nM.

For `CNC(=O)Nc1c[nH]c2ccc(-c3cnn(C4CCCC4)c3)cc12` [Compound 123, 1-[5-(1-cyclopentyl-1H-pyrazol-4-yl)-1H-indol-3-yl]-3-methylurea], the concentration for a half-maximal effect (EC50) lay in the range of 5000 to 100000 nM. The compound `CCc1ccc(-n2cc(-c3ccc4[nH]cc(NC(=O)NC5CCOC5)c4c3)cn2)cc1` (centres unmarked) [Compound 124, 1-(5-(1-(4-ethylphenyl)-1H-pyrazol-4-yl)-1H-indol-3-yl)-3-(tetrahydrofuran-3-yl)urea] showed a concentration for a half-maximal effect (EC50) of 200 to 1000 nM. `CCc1ccc(-n2cc(-c3ccc4[nH]cc(NC(=O)N[C@H]5C[C@H](OC)C5)c4c3)cn2)cc1` [Compound 125, 1-(5-(1-(4-ethylphenyl)-1H-pyrazol-4-yl)-1H-indol-3-yl)-3-((1r,3r)-3-methoxycyclobutyl)urea]: the EC50 lay in the range of 200 to 1000 nM. As for `CCc1ccc(-n2cc(-c3ccc4[nH]cc(NC(=O)NC5CCC5)c4c3)cn2)cc1` [Compound 126, 1-cyclobutyl-3-(5-(1-(4-ethylphenyl)-1H-pyrazol-4-yl)-1H-indol-3-yl)urea], the figure is 200 to 1000 nM; as for `CCc1ccc(-n2cc(-c3ccc4[nH]cc(NC(=O)NCC(F)F)c4c3)cn2)cc1` [Compound 127, 1-(2,2-difluoroethyl)-3-(5-(1-(4-ethylphenyl)-1H-pyrazol-4-yl)-1H-indol-3-yl)urea], 200 to 1000 nM. Compound `CCc1ccc(-n2cc(-c3ccc4[nH]cc(NC(=O)NCC5CC5)c4c3)cn2)cc1` [Compound 128, 1-(cyclopropylmethyl)-3-(5-(1-(4-ethylphenyl)-1H-pyrazol-4-yl)-1H-indol-3-yl)urea] returned a 50% effective concentration (EC50) of 200 to 1000 nM. As for `CCc1ccc(-n2cc(-c3ccc4[nH]cc(NC(=O)NCC(F)(F)F)c4c3)cn2)cc1` [Compound 129, 1-{5-(1-(4-ethylphenyl)-1H-pyrazol-4-yl]-1H-indol-3-yl}-3-(2,2,2-trifluoroethyl)urea], the figure is 40 to 200 nM; as for `CCc1ccc(-n2cc(-c3ccc4[nH]cc(NC(=O)NC(C)C)c4c3)cn2)cc1` [Compound 130, 1-(5-(1-(4-ethylphenyl)-1H-pyrazol-4-yl)-1H-indol-3-yl)-3-isopropylurea], 200 to 1000 nM. As for `CNC(=O)Nc1c[nH]c2ccc(-c3cnn(-c4ccccc4)c3)cc12` [Compound 131, 3-methyl-1-[5-(1-phenyl-1H-pyrazol-4-yl)-1H-indol-3-yl]urea], the figure is 1000 to 5000 nM; as for `CCc1ccc(-n2cc(-c3ccc4[nH]cc(NC(=O)NC)c4c3)cn2)cc1` [Compound 132, 1-(5-(1-(4-ethylphenyl)-1H-pyrazol-4-yl)-1H-indol-3-yl)-3-methylurea], 200 to 1000 nM.
